Patent publication US20130309218A1, “PROCESS FOR PRODUCING AQUEOUS SOLUTION CONTAINING FAT-SOLUBLE SUBSTANCE” (WACKER CHEMIE AG, priority 2011, published 2013)

Assays:
Type in all cases: physicochemical
[1] = H-1: solubility of CAPE with NaTC (HPLC); details: 1.4 mg CAPE (as complex or alone) in 5 mL water, sonicated 3 minutes
Protocol: As a comparison, water or a solution prepared by dissolving a super solubilizer (1.0% (w/v) NaTC) in water was combined with 1.4 mg of CAPE (in lieu of CAPE-γCD complex) and the mixture was prepared as described above. The resulting mixture was left to stand and filtered and the resulting solution was analyzed using HPLC.

[2] = B-1: solubility of CoQ10 with NaTC (HPLC); details: 50 mM MES buffer, 2 hours at 40° C.
Protocol: 1450 μL each of a 50 mM 2-morpholinoethanesulfonic acid (MES) buffer solution (containing 300 mM NaCl, 140 mM KSCN and 5 mM CaCl2) or the aforementioned buffer solution into which a super solubilizer (0.42% (w/v) NaTC, 0.83% (w/v) NaTC or 1.66% (w/v) NaTC) was dissolved were added to 57 mg of CAVAMAX® W8 CoQ10 (5 mg water content, 12.14 mg CoQ10 and 40 mg γCD) and sonication was performed for several seconds using an ultrasonic apparatus (Ikeda Scientific Co., Ltd.) and left to stand for 2 hours at 40° C.
As a comparison, 2 mL of 50 mM 2-morpholinoethanesulfonic acid (MES) buffer solution (containing 300 mM NaCl, 140 mM KSCN and 5 mM CaCl2) (in lieu of NaTC) was added to 12.14 mg of CoQ10 (in lieu of CAVAMAX® W8 CoQ10), and the mixture was prepared as described above. The resulting mixture was left to stand and filtered and the resulting solution was analyzed using HPLC.

[3] = B-2: solubility of CoQ10 with GZK2 (HPLC); details: 12 mg CoQ10 (as complex or alone) in 3 mL purified water, sonicated 1 hour
Protocol: 0 mg, 6.2 mg, 12.5 mg, 25 mg or 50 mg of GZK2 was mixed into 60 mg of CAVAMAX® W8 CoQ10 (containing 12 mg of CoQ10) as a super solubilizer and 3 mL purified water was added. The resulting mixture was then sonicated for 1 hour using an ultrasonic apparatus (Ikeda Scientific Co., Ltd.).
As a comparison, GZK2 was incorporated into 12 mg of CoQ10 as a super solubilizer and the mixture was prepared as described above. The resulting mixture was left to stand and filtered and the resulting solution was analyzed using HPLC.

[4] = Follow-up HPLC measurement of curcumin concentration in αCD aqueous solution comparable to Patent Document 2, Table 4
Protocol: Additionally, given that the maximum value of the concentration of the standard solution which was used as a reference was 100 μg/mL (Patent Document 2, Table 3), the concentration is outside the measurement range of the standard and is likely unreliable.

[5] = A-1 Preparation Method 1: solubility of curcumin with NaTC (HPLC); details: 50 mM MES buffer, sonicated, 2 hours at 40° C., 0.2 μm filter
Protocol: The mixture was then filtered and the solution obtained was analyzed via HPLC as described above.

[6] = A-2: solubility of curcumin with GZ (HPLC); details: 50 mM MES buffer, 2 hours at 40° C.
[7] = A-4: solubility of curcumin with quillaja saponin (HPLC); details: total 2 mL 10% aqueous ethanol, 1 hour at 40° C.
Protocol: The mixture was then allowed to stand, was filtered and the resulting solution was analyzed using HPLC.

[8] = A-5: solubility of curcumin with polysorbate (HPLC); details: Super Solubilizer: None (comparison); 1.4 mg curcumin in 2 mL ion-exchanged water
Protocol: This mixture was then sonicated for several seconds using an ultrasonic apparatus (Ikeda Scientific Co., Ltd.) and left to stand for 10 min at 40° C.
(§1) The resulting mixture was left to stand and filtered and the resulting solution was analyzed using HPLC.

[9] = A-6: solubility of curcumin with methylcellulose (HPLC); details: Super Solubilizer: None (comparison); 1.4 mg curcumin in 2 mL ion-exchanged water
Protocol: This mixture was then mixed by inversion.
as §1

[10] = A-8: solubility of curcumin with Na glycocholate (HPLC); details: Amount of Na Glycocholate Added 2.0% (w/v); 2 mL water; filtered immediately following mixing

SMILES: O=C(/C=C/c1ccc(O)c(O)c1)OCCc1ccccc1 [CAPE, caffeic acid phenethyl ester]
- CAPE Concentration ([1]; NaTC concentration 0% (w/v)): 16 µg/mL
- CAPE Concentration ([1]; NaTC concentration 1.0% (w/v)): 155 µg/mL

SMILES: COC1=C(OC)C(=O)C(C/C=C(\C)CC/C=C(\C)CC/C=C(\C)CC/C=C(\C)CC/C=C(\C)CC/C=C(\C)CC/C=C(\C)CC/C=C(\C)CC/C=C(\C)CCC=C(C)C)=C(C)C1=O [CoQ10, coenzyme Q10]
- CoQ10 Concentration ([2]; NaTC concentration 0% (w/v)): 0 µg/mL
- CoQ10 Concentration ([2]; NaTC concentration 0.42% (w/v)): 0 µg/mL
- CoQ10 Concentration ([2]; NaTC concentration 0.83% (w/v)): 0 µg/mL
- CoQ10 Concentration ([2]; NaTC concentration 1.66% (w/v)): 1.52 µg/mL
- CoQ10 Concentration ([3]; Amount of GZK2 Added 0 mg): 0.2 µg/mL
- CoQ10 Concentration ([3]; Amount of GZK2 Added 6.2 mg): 3.6 µg/mL
- CoQ10 Concentration ([3]; Amount of GZK2 Added 12.5 mg): 9.1 µg/mL
- CoQ10 Concentration ([3]; Amount of GZK2 Added 25 mg): 3.9 µg/mL
- CoQ10 Concentration ([3]; Amount of GZK2 Added 50 mg): 3.9 µg/mL

SMILES: COc1cc(/C=C/C(=O)CC(=O)/C=C/c2ccc(O)c(OC)c2)ccc1O [Curcumin, curcumin]
- concentration of curcumin ([4]; content of αCD 1%): 1470 ng/mL
- concentration of curcumin ([4]; content of αCD 2.5%): 3630 ng/mL
- concentration of curcumin ([4]; content of αCD 5%): 8290 ng/mL
- Curcumin Concentration ([5]; NaTC concentration 0% (w/v)): 3.95 µg/mL
- Curcumin Concentration ([5]; NaTC concentration 0.83% (w/v)): 35.35 µg/mL
- Curcumin Concentration ([5]; NaTC concentration 1.66% (w/v)): 219.2 µg/mL
- Curcumin Concentration ([6]; GZ Concentration 0% (w/v)): 3.95 µg/mL
- Curcumin Concentration ([6]; GZ Concentration 3.50% (w/v)): 98.19 µg/mL
- Curcumin Concentration ([7]; Amount of QS Added 0 μL): 0.02 µg/mL
- Curcumin Concentration ([7]; Amount of QS Added 200 μL): 16.81 µg/mL
- Curcumin Concentration ([7]; Amount of QS Added 1000 μL): 122.96 µg/mL
- Curcumin Concentration [8]: 0.01 µg/mL
- Curcumin Concentration [9]: 0.01 µg/mL
- Curcumin Concentration [10]: 12.31 µg/mL
